The nature of data set [1]: Stability of the analytes in plasma (bench top, autosampler, freeze-thaw, long-term). The format is physicochemical, human. The conditions noted are these: for Stability Bias (%) 1 FT Cycle (30 min, −18–25 °C) / Stability Bias (%) 2 FT Cycles (30 min, −18–25 °C) / Stability Bias (%) 3 FT Cycles (30 min, −18–25 °C) / Stability Bias (%) Long-Term (2 Weeks, −18 °C): plasma; for Stability Bias (%) 1 FT Cycle (30 min, −18–25 °C) / Stability Bias (%) 2 FT Cycles (30 min, −18–25 °C) / Stability Bias (%) 3 FT Cycles (30 min, −18–25 °C) / Stability Bias (%) Long-Term (2 Weeks, −18 °C) / Stability Bias (%) Autosampler (10 h, 10 °C): N = 3; for Stability Bias (%) Autosampler (10 h, 10 °C): processed plasma sample; for Stability Bias (%) Bench Top (2 h, 25 °C): unprocessed plasma, N = 3, vs fresh QC. The method, then:
Stability of the stock and working solutions was determined in the preliminary studies. […] Patient plasma samples were stored long-term at −80 °C. Since adequate stability of plasma samples was proven at −18 °C, it was deemed acceptable at lower temperatures as well. Lower- and higher-concentration QC samples were prepared in triplicate for each condition and time point and were analyzed against QC samples freshly prepared in triplicate.

For data set [2] the following is noted: plasma; cited from earlier work.
The nature of data set [3]: LC-MS/MS quantitation of drugs in single-point patient plasma samples (therapeutic drug monitoring). The format is in vivo, human. The method, then:
Samples from ten women (ages 35 to 78, median 50.5 years) receiving regular treatment with a combination of a CDK4/6 inhibitor (PAL, RIB or ABE) and endocrine therapy (ANA, LET, FUL or exemestane, EXE) were obtained and analyzed using this LC-MS method. The samples were mostly taken in the elimination phase, during the patients’ regular visit to the hospital before the next dose administration, except in the case of patient 4 (sampling 1 h after dose administration). The aromatase inhibitors and ABE are continuously administered as single daily doses, FUL is a once-monthly intramuscular injection, and the dosing regimen of PAL and RIB involves a week off treatment every 21 days to minimize treatment-induced neutropenia.
The samples were analyzed against freshly prepared calibration curves. The results are listed in Table 7, while the accompanying chromatograms and mass spectra are included in the Supplementary Materials, Section 1, Figures S1–S29.
Healthy and patient blood samples were collected and pre-treated at the University Hospital Centre Zagreb, with signed informed consent. Patients receiving a combination of a CDK4/6 inhibitor and endocrine therapy as regular treatment for at least 4 months were enrolled.
Whole blood was collected in containers with K2-EDTA anticoagulant and centrifuged for 10 min at 1500 g; the supernatant was then withdrawn and stored at −18 °C (blank plasma) or −80 °C (patients’ plasma). Hemolyzed plasma was obtained by briefly freezing a whole blood sample at −18 °C before continuing with the procedure.
Calibration and QC samples were prepared by diluting 5 µL of the appropriate working solutions of the analytes with 45 µL of blank plasma in 1.5 mL polypropylene centrifuge tubes. In case of patient sample analysis, an aliquot of 50 µL of patient plasma was used. Proteins were precipitated by adding 200 µL of ACN, after which the samples were vortex-mixed for 10 s and centrifuged at 2000 g for 5 min. The resulting supernatant was collected and 200 µL was evaporated to dryness in a vacuum evaporator at room temperature. The dry residue was dissolved in 40 µL of 65% methanol, while 5 µL was injected into the chromatographic system.

The mark [4] stands for this setting: higher QC level (RIB 2500, ABE 1500, PAL 250, ANA 100, LET 250, FUL 500 ng/mL).
[5] abbreviates: lower QC level (RIB 62.5, ABE 37.5, PAL 6.2, ANA 2.5, LET 6.25, FUL 12.5 ng/mL).

Turning to `CC(C)(C#N)c1cc(Cn2cncn2)cc(C(C)(C)C#N)c1` [ANA, anastrozole], in data set [1] (setting [4]), the “Stability Bias (%) 1 FT Cycle (30 min, −18–25 °C)” value (from here on “Stability Bias (%) 1 FT Cycle”) was 6.65%; the “Stability Bias (%) 2 FT Cycles (30 min, −18–25 °C)” value (“Stability Bias (%) 2 FT Cycles” for short) amounted to 8.39%; the “Stability Bias (%) 3 FT Cycles (30 min, −18–25 °C)” value (from here on “Stability Bias (%) 3 FT Cycles”) is −0.69%; the “Stability Bias (%) Long-Term (2 Weeks, −18 °C)” value (from here on “Stability Bias (%) Long-Term”) is reported as −0.40%. In data set [1] (setting [4]), the “Stability Bias (%) Autosampler (10 h, 10 °C)” value (from here on “Stability Bias (%) Autosampler”) turned out to be 4.89% and the “Stability Bias (%) Bench Top (2 h, 25 °C)” value (“Stability Bias (%) Bench Top” below) is listed as −0.62%. Also, in data set [1] (setting [5]), the “Stability Bias (%) 1 FT Cycle” value was −7.88%; the “Stability Bias (%) 2 FT Cycles” value is reported as −2.80%; the “Stability Bias (%) 3 FT Cycles” value is −3.98%; the “Stability Bias (%) Long-Term” value was 3.09%. For the same molecule, in data set [1] (setting [5]), the “Stability Bias (%) Autosampler” value is 2.27% and the “Stability Bias (%) Bench Top” value is given as −10.33%. In addition, in data set [2], the “Expected literature range Cmin–Cmax” value was 22–52.6 [27] ng/mL. Moreover, the “Plasma Concentration” value in data set [3] (patient 5, ANA 1 mg daily) is given as 43.96 ng/mL.
In the case of `C[C@]12CC[C@@H]3c4ccc(O)cc4C[C@@H](CCCCCCCCC[S+]([O-])CCCC(F)(F)C(F)(F)F)[C@H]3[C@@H]1CC[C@@H]2O` (stereo partly shown) [FUL, fulvestrant], in data set [1] (setting [4]), the “Stability Bias (%) 1 FT Cycle” value is 2.23%; the “Stability Bias (%) 2 FT Cycles” value was determined as 4.49%; the “Stability Bias (%) 3 FT Cycles” value is listed as −7.51%; the “Stability Bias (%) Long-Term” value is on record as −1.62%. Besides, in data set [1] (setting [4]), the “Stability Bias (%) Autosampler” value is given as −8.06% and the “Stability Bias (%) Bench Top” value is 2.32%. Also, in data set [1] (setting [5]), the “Stability Bias (%) 1 FT Cycle” value is given as −14.59%; the “Stability Bias (%) 2 FT Cycles” value was −13.24%; the “Stability Bias (%) 3 FT Cycles” value is reported as −8.90%; the “Stability Bias (%) Long-Term” value is given as −5.01%. Also, in data set [1] (setting [5]), the “Stability Bias (%) Autosampler” value is 7.38% and the “Stability Bias (%) Bench Top” value was −9.36%. For the same molecule, the “Expected literature range Cmin–Cmax” value in data set [2] is 16–25 [29] ng/mL. The “Plasma Concentration” value in data set [3] (patient 7, FUL 500 mg monthly, intramuscular) worked out at 20.73 ng/mL. For the same molecule, in data set [3] (patient 8, FUL 500 mg monthly, intramuscular), the “Plasma Concentration” value turned out to be 22.69 ng/mL. Further, the “Plasma Concentration” value in data set [3] (patient 9, FUL 500 mg monthly, intramuscular) worked out at 22.13 ng/mL. In addition, the “Plasma Concentration” value in data set [3] (patient 10, FUL 500 mg monthly, intramuscular) is 24.56 ng/mL.
With `N#Cc1ccc(C(c2ccc(C#N)cc2)n2cncn2)cc1` [LET, letrozole], in data set [1] (setting [4]), the “Stability Bias (%) 1 FT Cycle” value was determined as 2.07%; the “Stability Bias (%) 2 FT Cycles” value is recorded as −0.26%; the “Stability Bias (%) 3 FT Cycles” value is on record as −7.61%; the “Stability Bias (%) Long-Term” value is on record as −7.75%. In data set [1] (setting [4]), the “Stability Bias (%) Autosampler” value is −0.29% and the “Stability Bias (%) Bench Top” value came out at 6.16%. In addition, in data set [1] (setting [5]), the “Stability Bias (%) 1 FT Cycle” value is −0.06%; the “Stability Bias (%) 2 FT Cycles” value was −6.52%; the “Stability Bias (%) 3 FT Cycles” value is recorded as −3.50%; the “Stability Bias (%) Long-Term” value is −10.44%. Besides, in data set [1] (setting [5]), the “Stability Bias (%) Autosampler” value is recorded as 6.11% and the “Stability Bias (%) Bench Top” value was −6.81%. In addition, the “Expected literature range Cmin–Cmax” value in data set [2] is 28.4–349.2 [28] ng/mL. Moreover, the concentration at 1 h in data set [3] (human, plasma, patient 4, LET 2.5 mg daily, 1 h after dose administration) is 139 ng/mL. For the same molecule, the “Plasma Concentration” value in data set [3] (patient 1, LET 2.5 mg daily) was 109.99 ng/mL. For the same molecule, in data set [3] (patient 2, LET 2.5 mg daily), the “Plasma Concentration” value is on record as 141.11 ng/mL. For the same molecule, in data set [3] (patient 3, LET 2.5 mg daily), the “Plasma Concentration” value came to 146.21 ng/mL.
For the molecule `CC(=O)c1c(C)c2cnc(Nc3ccc(N4CCNCC4)cn3)nc2n(C2CCCC2)c1=O` [PAL, palbociclib], in data set [1] (setting [4]), the “Stability Bias (%) 1 FT Cycle” value amounted to 6.35%; the “Stability Bias (%) 2 FT Cycles” value is −1.65%; the “Stability Bias (%) 3 FT Cycles” value is recorded as −7.90%; the “Stability Bias (%) Long-Term” value was −3.08%. Moreover, in data set [1] (setting [4]), the “Stability Bias (%) Autosampler” value amounted to 14.95% and the “Stability Bias (%) Bench Top” value is given as −4.37%. In addition, in data set [1] (setting [5]), the “Stability Bias (%) 1 FT Cycle” value was 14.97%; the “Stability Bias (%) 2 FT Cycles” value amounted to 1.86%; the “Stability Bias (%) 3 FT Cycles” value is listed as 2.81%; the “Stability Bias (%) Long-Term” value is 12.29%. For the same molecule, in data set [1] (setting [5]), the “Stability Bias (%) Autosampler” value came out at 13.69% and the “Stability Bias (%) Bench Top” value is recorded as 3.08%. Also, the “Expected literature range Cmin–Cmax” value in data set [2] is 72.8–185.5 [26] ng/mL. Also, in data set [3] (human, plasma, patient 8, PAL 125 mg daily, sampling day 27 (off-treatment week)), the concentration at 27 day was found to be 7.55 ng/mL. Further, the “Plasma Concentration (ng/mL)” value in data set [3] (patient 9, PAL 125 mg daily, sampling day 28 (off-treatment week)) is reported as “<LOQ”. Also, in data set [3] (patient 10, PAL 125 mg daily, sampling day 23 (off-treatment week)), the “Plasma Concentration (ng/mL)” value was “<LOD”.

The record behind these values is publication PMC9147789, “Development and Validation of a Novel LC-MS/MS Method for the Simultaneous Determination of Abemaciclib, Palbociclib, Ribociclib, Anastrozole, Letrozole, and Fulvestrant in Plasma Samples: A Prerequisite for Personalized Breast Cancer Treatment” (Pharmaceuticals, 2022).
